Assays:
[1] = system: YAP/TAZ; experiment: Screening: YAP/TAZ activity reporter (8xGTIIC plasmid) assay in NUGC3 cells (luminescence % of DMSO); format: cell-based, human; conditions: NUGC3 cells, luminescence relative to DMSO, concentration not given
Protocol: (§1) Human gastric cancer cell line NUGC3 was cultured in a DMEM medium (high glucose with L-glutamine and phenol red, produced by FUJIFILM Wako Pure Chemical Corporation) containing 10% fetal bovine serum (produced by Thermo Fisher Scientific Inc.) and penicillin-streptomycin (produced by FUJIFILM Wako Pure Chemical Corporation) (this medium is simply referred to below as “DMEM+10% FBS+1×P/S”). Then, the NUGC3 cells were seeded in a 60-mm culture dish (produced by BioLite) so that the cells were 80% confluent after 24 hours. Subsequently, 5 μg of a reporter plasmid and 15 μL of a lipofection reagent (transIT-LT1, produced by Mirus Bio LLC) were mixed in 500 μL of Opti-MEM medium (produced by Thermo Fisher Scientific, Inc.) to form a complex, which was added to the medium in which the NUGC3 cells were cultured in the 60-mm culture dish. For use as the reporter plasmid, 5 μg of a polyglutamine luciferase reporter was introduced (in the polyglutamine luciferase reporter, a Renilla luciferase expressed in the IRES was located as an internal standard downstream of the sequence of a firefly luciferase sequence to which polyglutamine was added). Alternatively, a YAP/TAZ activity reporter was used by simultaneously introducing 3 μg of 8×GTIIC plasmid and 2 μg of a Renilla luciferase reporter as an internal standard. After another 24 hours, the cells were exfoliated with a 0.05 w/v % trypsin-0.53 mmol/l EDTA-4Na solution (produced by FUJIFILM Wako Pure Chemical Corporation), and then seeded in a 96-well plate (produced by BioLite) so that the cells were 80% confluent after 24 hours. Twenty-four hours after seeding in the 96-well plate, the medium in each well was replaced with 100 μL of a medium (DMEM+10% FBS+an antibiotic) containing 10 μM or 5 μM of a compound for evaluation. After another 24 hours, the medium containing the compound was removed, and the 96-well plate was transferred on ice. Each well was washed with 100 μL of phosphate buffer (PBS, produced by FUJIFILM Wako Pure Chemical Corporation). Thereafter, 20 μL of Passive Lysis Buffer (1×) contained in a Dual-Luciferase Reporter Assay System (produced by Promega Corporation) was added. The plate was then gently shaken for 15 minutes at room temperature to lyse the cells. After confirming that the cells were lysed, 10 μL of the lysate was transferred from each well to each corresponding well of a white 96-well plate (produced by Greiner Bio-one). To each well of the white 96-well plate was added 100 μL of a mixture of a Luciferase Assay Buffer II and Luciferase Assay Substrate contained in the Dual-Luciferase Reporter Assay System (produced by Promega Corporation), whereby the luminescence of the firefly luciferase was induced, and the luminescence intensity was detected with a microluminometer (produced by Berthold Japan K.K.). Subsequently, 100 μL of a mixture of Stop & Glo Buffer and Stop & Glo Substrate contained in the Dual-Luciferase Reporter Assay System (produced by Promega Corporation) was added, whereby the luminescence of firefly luciferase was quenched while the luminescence of Renilla luciferase was induced, and the luminescence intensity was detected with a microluminometer (produced by Berthold Japan K.K.) in a manner similar to the above. The ratio of the luminescence intensity of the firefly luciferase and the luminescence intensity of the Renilla luciferase was calculated, and the luminescence intensity (%) of the wells containing each compound was calculated with the luminescence intensity of the well containing DMSO (dimethyl sulfoxide, used as a solvent for the compound liquids) taken as 100%. […] Unless otherwise specified, the measured values in the table represent the results obtained by evaluation with the addition of 10 μM of each compound for evaluation.

[2] = system: polyglutamine luciferase reporter; experiment: Screening: polyglutamine luciferase reporter assay in NUGC3 cells (luminescence % of DMSO); format: cell-based, human; conditions: NUGC3 cells, luminescence relative to DMSO, concentration not given
Protocol: as §1

[3] = YAP/TAZ activity reporter (8×GTIIC)
[4] = polyglutamine luciferase reporter

Compound | 8×GTIIC [1, 3] | Polyglutamine [2, 4] | 8×GTIIC [1] | Polyglutamine [2]
Cc1ccc(C)c(S(=O)(=O)CC2CCC(C3CC3)CC2)c1 (single isomer, unassigned) [SA005] | 90.78% | 76.08% |  | 
Cc1ccc(C)c(S(=O)(=O)C2CCC(CS(=O)(=O)c3ccccc3)CC2)c1 (single isomer, unassigned) [SA014] | 93.69% | 72.95% |  | 
Cc1ccc(C)c(S(=O)(=O)C2CCC(CS(=O)(=O)c3ccccc3)CC2)c1 (single isomer, unassigned) [SA015] | 69.21% | 60.36% |  | 
CCc1ccc(OC)cc1C1CC(c2ccc(C)cc2)=NC1S(=O)(=O)c1ccc(C)cc1 (centres unmarked) [PVZF0043] |  |  | 36.69% | 35.33%
CCc1cccc(C2CC(c3ccccc3)=NC2S(=O)(=O)c2ccccc2)c1CC (centres unmarked) [PVZF0046] |  |  | 54.68% | 47.04%
CCc1cccc(C2CC(c3cccc(C)c3)=NC2S(=O)(=O)c2ccccc2)c1CC (centres unmarked) [PVZF0049] |  |  | 91.32% | 67.85%
CCc1cccc(C2CC(c3ccccc3)=NC2S(=O)(=O)c2ccccc2C)c1CC (centres unmarked) [PVZF0050] |  |  | 106.2% | 58.65%
CCc1cccc(C2CC(c3ccc(C)cc3)=NC2S(=O)(=O)c2ccccc2C)c1CC (centres unmarked) [PVZF0051] |  |  | 36.59% | 40.74%
CCc1ccc(C2=NC(S(=O)(=O)c3ccccc3)C(c3cccc(CC)c3CC)C2)cc1CC (centres unmarked) [PVZF0052] |  |  | 54.38% | 71.62%
CCc1cc(OC)cc(C2=NC(S(=O)(=O)c3ccccc3)C(c3cccc(CC)c3CC)C2)c1 (centres unmarked) [PVZF0053] |  |  | 58.96% | 68.68%
CCc1ccc(C2=NC(S(=O)(=O)c3ccccc3)C(c3cccc(CC)c3CC)C2)c(CC)c1 (centres unmarked) [PVZF0054] |  |  | 49.48% | 56.4%
CCc1cc(CC)cc(C2=NC(S(=O)(=O)c3ccc(C)cc3)C(c3cccc(CC)c3CC)C2)c1 (centres unmarked) [PVZF0055] |  |  | 45.63% | 46.42%
CCc1cccc(C2CC(c3ccc(C)cc3)=NC2S(=O)(=O)c2ccccc2)c1CC (centres unmarked) [PVZF0056] |  |  | 53.76% | 48.33%
CCc1cccc(C2CC(c3ccc(C)cc3)=NC2S(=O)(=O)c2ccc(C)cc2)c1CC (centres unmarked) [PVZF0057] |  |  | 61.81% | 50.71%
CCc1cccc(C2CC(c3cccc(C)c3)=NC2S(=O)(=O)c2ccccc2C)c1CC (centres unmarked) [PVZF0058] |  |  | 66.66% | 54.21%
CCc1cccc(C2CC(c3ccc(C)cc3)=NC2S(=O)(=O)c2ccccc2C)c1CC (centres unmarked) [PVZF0059] |  |  | 38.46% | 43.94%
CCc1ccccc1C1CC(c2ccc(C)cc2)=NC1S(C)(=O)=O (centres unmarked) [PVZF0060] |  |  | 44.13% | 38.44%
CCc1cccc(C2CC(c3ccc(C)cc3)=NC2S(C)(=O)=O)c1 (centres unmarked) [PVZF0061] |  |  | 121.9% | 69.94%
Cc1ccc(C2=NC(S(=O)(=O)c3ccccc3C)C(c3cccc(C)c3)C2)cc1 (centres unmarked) [PVZF0062] |  |  | 73.79% | 54.91%
CCc1ccccc1C1CC(c2ccc(C)cc2)=NC1S(=O)(=O)c1ccccc1 (centres unmarked) [PVZF0063] |  |  | 56.3% | 43.6%
Cc1ccc(C2=NC(S(=O)(=O)c3ccccc3C)C(c3ccc(C)cc3)C2)cc1 (centres unmarked) [PVZF0064] |  |  | 93.3% | 58.28%
CCc1ccccc1C1CC(c2ccc(C)cc2)=NC1S(=O)(=O)c1ccccc1C (centres unmarked) [PVZF0065] |  |  | 67.6% | 48.96%
CCc1ccc(C2CC(c3ccc(C)cc3)=NC2S(=O)(=O)c2ccccc2)cc1CC (centres unmarked) [PVZF0066] |  |  | 65.56% | 56.14%
CCc1ccc(CC)c(C2CC(c3ccc(C)cc3)=NC2S(=O)(=O)c2ccccc2C)c1 (centres unmarked) [PVZF0067] |  |  | 34.58% | 32.14%
CCc1cccc(C2CC(c3ccccc3)=NC2S(=O)(=O)c2ccc(C)cc2)c1CC (centres unmarked) [PVZF0068] |  |  | 51.65% | 39.33%

From patent publication US20230210834A1, “RNA METHYLTRANSFERASE INHIBITOR, SCREENING METHOD THEREFOR, ANTI-CANCER AGENT EFFICACY ASSESSMENT MARKER, AND KIT FOR EFFECTIVELY PREDICTING FTSJ1 INHIBITOR” (National University Corporation Okayama University, priority 2019, published 2023)
